{"source": "ChEMBL document CHEMBL5465560", "about": "“Selectivity Literature for EUbOPEN Chemogenomic Library” (2024)", "key": {"[1]": {"target": "Receptor-interacting serine/threonine-protein kinase 2 (Homo sapiens, UniProt O43353)", "sequence (O43353 whole entry)": "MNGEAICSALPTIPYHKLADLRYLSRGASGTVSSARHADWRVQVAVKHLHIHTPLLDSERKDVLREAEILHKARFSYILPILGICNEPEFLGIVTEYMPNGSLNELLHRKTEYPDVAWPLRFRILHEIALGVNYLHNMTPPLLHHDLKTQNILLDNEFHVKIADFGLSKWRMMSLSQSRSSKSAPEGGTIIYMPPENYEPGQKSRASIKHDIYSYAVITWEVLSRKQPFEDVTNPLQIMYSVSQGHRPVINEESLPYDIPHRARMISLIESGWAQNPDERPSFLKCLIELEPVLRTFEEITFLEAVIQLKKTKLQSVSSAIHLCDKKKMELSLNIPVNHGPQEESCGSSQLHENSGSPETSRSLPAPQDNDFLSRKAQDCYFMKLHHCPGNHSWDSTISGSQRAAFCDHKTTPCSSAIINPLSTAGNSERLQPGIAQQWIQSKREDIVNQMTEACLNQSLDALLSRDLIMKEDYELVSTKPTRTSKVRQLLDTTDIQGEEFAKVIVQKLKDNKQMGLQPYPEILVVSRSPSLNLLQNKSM", "conditions": "at 10 µM"}, "[2]": {"target": "T1, Serine/threonine-protein kinase D2 (Homo sapiens) (UniProt Q9BZL6)", "T1 sequence (whole entry)": "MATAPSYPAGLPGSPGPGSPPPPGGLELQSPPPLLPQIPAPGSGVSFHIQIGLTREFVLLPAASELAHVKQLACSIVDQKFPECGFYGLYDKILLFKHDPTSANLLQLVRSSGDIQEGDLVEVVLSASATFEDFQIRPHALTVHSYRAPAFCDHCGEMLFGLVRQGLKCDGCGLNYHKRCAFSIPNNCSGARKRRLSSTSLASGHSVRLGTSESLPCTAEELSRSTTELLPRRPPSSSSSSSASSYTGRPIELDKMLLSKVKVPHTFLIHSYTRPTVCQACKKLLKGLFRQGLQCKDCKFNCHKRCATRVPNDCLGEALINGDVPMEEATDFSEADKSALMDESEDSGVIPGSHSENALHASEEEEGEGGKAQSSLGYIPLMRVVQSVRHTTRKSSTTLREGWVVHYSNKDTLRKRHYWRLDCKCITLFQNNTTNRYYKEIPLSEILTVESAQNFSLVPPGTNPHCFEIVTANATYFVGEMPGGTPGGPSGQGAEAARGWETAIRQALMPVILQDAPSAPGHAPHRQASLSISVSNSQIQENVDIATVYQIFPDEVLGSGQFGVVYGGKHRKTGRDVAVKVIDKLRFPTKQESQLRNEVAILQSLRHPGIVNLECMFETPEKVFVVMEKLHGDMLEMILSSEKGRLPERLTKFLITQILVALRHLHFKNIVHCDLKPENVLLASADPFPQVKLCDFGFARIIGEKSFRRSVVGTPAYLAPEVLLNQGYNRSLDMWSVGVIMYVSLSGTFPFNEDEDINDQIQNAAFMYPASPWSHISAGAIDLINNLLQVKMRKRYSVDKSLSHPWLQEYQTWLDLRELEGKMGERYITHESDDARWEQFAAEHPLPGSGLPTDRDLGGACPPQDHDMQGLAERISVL", "conditions": "at 10 µM"}, "[3]": {"target": "Serine/threonine-protein kinase SIK1 (Homo sapiens) (UniProt P57059)", "sequence (P57059 whole entry)": "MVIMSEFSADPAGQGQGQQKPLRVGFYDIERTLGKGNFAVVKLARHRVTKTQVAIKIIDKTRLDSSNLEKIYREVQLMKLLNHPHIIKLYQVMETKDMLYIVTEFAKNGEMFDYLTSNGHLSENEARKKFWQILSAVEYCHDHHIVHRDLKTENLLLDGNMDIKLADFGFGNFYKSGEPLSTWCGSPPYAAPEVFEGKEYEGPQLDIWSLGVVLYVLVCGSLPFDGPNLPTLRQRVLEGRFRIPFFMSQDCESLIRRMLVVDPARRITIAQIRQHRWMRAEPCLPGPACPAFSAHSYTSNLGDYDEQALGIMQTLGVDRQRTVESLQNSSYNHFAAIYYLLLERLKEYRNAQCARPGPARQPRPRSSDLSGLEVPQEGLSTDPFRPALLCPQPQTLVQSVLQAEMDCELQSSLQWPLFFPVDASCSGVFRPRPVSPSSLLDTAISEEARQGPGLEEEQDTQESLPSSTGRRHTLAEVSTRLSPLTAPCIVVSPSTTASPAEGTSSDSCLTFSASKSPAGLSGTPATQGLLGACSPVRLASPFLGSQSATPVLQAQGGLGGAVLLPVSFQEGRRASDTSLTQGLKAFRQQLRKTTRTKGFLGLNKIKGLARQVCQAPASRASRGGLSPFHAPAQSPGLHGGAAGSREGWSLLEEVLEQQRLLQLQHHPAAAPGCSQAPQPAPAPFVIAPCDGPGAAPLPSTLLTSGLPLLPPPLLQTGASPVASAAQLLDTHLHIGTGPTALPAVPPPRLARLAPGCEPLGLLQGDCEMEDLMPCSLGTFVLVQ", "assay": "Selectivity interaction (KinomeScan (DiscoverX)) EUB0001079a SIK1", "conditions": "at 1 µM"}, "[4]": {"target": "Bone morphogenetic protein receptor type-1A (Homo sapiens, UniProt P36894)", "sequence (P36894 whole entry)": "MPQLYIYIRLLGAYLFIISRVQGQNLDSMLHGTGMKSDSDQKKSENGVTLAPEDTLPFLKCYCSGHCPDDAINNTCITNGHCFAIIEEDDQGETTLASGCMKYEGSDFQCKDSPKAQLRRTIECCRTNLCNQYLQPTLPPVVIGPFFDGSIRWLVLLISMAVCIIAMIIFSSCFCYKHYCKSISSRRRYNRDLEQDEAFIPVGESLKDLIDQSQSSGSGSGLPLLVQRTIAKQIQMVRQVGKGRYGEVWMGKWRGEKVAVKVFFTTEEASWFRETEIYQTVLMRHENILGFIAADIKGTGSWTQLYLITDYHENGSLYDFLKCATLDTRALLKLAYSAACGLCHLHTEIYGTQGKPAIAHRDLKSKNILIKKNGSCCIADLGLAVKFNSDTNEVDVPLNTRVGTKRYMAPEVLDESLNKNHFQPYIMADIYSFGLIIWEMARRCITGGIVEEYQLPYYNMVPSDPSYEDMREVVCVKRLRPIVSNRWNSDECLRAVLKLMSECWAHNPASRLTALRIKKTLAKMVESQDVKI", "assay": "Selectivity interaction (KinomeScan (DiscoverX)) EUB0000607a BMPR1A", "conditions": "at 10 µM"}, "[5]": {"target": "T2, Scaffold protein ILK (Homo sapiens) (UniProt Q13418)", "T2 sequence (whole entry)": "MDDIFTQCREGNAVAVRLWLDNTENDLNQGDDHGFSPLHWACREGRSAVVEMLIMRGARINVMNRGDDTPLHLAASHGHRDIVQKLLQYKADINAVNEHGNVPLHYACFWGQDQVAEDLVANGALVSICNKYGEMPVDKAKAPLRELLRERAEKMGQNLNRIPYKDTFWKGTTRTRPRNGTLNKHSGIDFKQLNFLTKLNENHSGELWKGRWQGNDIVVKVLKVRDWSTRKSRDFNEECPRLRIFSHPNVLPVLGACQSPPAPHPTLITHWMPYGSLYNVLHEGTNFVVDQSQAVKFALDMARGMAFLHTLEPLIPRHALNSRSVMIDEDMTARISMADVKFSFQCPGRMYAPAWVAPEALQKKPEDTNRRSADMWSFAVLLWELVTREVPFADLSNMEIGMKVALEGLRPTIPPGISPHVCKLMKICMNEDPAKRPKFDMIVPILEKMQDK", "assay": "Selectivity interaction (ActivX KiNativ screen (ex vivo kinase selectivity in human PBMCs)) EUB0001619a ILK", "type": "cell-based", "conditions": "PBMC, at 1 µM"}, "[6]": {"tested_on": "eIF-2-alpha kinase GCN2 (Homo sapiens), Q9P2K8 [S808G]", "assay": "Selectivity interaction (KinomeScan (DiscoverX)) EUB0000595a EIF2AK4", "conditions": "at 10 µM"}, "[7]": {"target": "Death-associated protein kinase 2 (Homo sapiens) (UniProt Q9UIK4)", "sequence (Q9UIK4 whole entry, looked up)": "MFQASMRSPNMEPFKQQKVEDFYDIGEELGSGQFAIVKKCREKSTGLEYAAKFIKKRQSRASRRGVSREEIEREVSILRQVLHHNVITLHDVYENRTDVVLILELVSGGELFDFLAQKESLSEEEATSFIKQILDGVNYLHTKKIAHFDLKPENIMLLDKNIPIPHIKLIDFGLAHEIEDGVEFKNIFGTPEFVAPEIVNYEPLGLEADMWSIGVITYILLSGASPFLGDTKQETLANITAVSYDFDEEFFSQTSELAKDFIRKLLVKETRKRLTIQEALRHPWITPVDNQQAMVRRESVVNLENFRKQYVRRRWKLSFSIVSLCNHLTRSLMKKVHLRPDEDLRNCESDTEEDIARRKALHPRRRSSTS", "assay": "Selectivity interaction (Upstate Kinase Profiler service (Millipore)) EUB0000056c DAPK2", "conditions": "at 1 µM"}, "[8]": {"target": "Serine/threonine-protein kinase MARK2 (Homo sapiens) (UniProt Q7KZI7)", "sequence (Q7KZI7 whole entry)": "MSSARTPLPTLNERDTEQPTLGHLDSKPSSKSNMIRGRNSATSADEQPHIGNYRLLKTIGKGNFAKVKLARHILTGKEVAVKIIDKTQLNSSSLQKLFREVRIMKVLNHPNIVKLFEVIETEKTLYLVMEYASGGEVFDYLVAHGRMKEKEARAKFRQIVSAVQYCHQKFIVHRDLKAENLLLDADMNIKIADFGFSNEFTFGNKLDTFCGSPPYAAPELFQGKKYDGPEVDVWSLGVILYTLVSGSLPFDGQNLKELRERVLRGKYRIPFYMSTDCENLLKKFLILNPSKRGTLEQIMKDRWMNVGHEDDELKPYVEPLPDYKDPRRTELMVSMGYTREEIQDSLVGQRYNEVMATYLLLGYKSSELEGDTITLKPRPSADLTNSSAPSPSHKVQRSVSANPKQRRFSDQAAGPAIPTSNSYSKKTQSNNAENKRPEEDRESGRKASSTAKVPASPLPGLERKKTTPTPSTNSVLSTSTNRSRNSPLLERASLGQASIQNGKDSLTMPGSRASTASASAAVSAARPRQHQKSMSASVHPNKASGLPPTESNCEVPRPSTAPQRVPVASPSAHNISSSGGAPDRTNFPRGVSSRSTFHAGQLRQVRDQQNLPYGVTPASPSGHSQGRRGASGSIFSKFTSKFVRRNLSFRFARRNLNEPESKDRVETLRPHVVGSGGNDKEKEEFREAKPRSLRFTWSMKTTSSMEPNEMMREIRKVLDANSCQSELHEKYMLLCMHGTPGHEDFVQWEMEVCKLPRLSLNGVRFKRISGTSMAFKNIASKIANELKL", "assay": "Selectivity interaction (Kinase panel (KiNativ target engagement assay in Jurkat cells)) EUB0001635a MARK2", "type": "cell-based", "conditions": "Selectivity number of off-targets 0.0, Selectivity number of targets 233.0, Source Knowledge https://www.sciencedirect.com/science/article/pii/S2451945619300674?via%3Dihub, at 1 µM"}, "[9]": {"target": "Tyrosine-protein kinase JAK2 (Homo sapiens, UniProt O60674)", "conditions": "at 10 µM"}, "[10]": {"target": "Phosphatidylinositol 4,5-bisphosphate 3-kinase catalytic subunit gamma isoform (Homo sapiens) (UniProt P48736)", "sequence (P48736 whole entry, looked up, canonical isoform)": "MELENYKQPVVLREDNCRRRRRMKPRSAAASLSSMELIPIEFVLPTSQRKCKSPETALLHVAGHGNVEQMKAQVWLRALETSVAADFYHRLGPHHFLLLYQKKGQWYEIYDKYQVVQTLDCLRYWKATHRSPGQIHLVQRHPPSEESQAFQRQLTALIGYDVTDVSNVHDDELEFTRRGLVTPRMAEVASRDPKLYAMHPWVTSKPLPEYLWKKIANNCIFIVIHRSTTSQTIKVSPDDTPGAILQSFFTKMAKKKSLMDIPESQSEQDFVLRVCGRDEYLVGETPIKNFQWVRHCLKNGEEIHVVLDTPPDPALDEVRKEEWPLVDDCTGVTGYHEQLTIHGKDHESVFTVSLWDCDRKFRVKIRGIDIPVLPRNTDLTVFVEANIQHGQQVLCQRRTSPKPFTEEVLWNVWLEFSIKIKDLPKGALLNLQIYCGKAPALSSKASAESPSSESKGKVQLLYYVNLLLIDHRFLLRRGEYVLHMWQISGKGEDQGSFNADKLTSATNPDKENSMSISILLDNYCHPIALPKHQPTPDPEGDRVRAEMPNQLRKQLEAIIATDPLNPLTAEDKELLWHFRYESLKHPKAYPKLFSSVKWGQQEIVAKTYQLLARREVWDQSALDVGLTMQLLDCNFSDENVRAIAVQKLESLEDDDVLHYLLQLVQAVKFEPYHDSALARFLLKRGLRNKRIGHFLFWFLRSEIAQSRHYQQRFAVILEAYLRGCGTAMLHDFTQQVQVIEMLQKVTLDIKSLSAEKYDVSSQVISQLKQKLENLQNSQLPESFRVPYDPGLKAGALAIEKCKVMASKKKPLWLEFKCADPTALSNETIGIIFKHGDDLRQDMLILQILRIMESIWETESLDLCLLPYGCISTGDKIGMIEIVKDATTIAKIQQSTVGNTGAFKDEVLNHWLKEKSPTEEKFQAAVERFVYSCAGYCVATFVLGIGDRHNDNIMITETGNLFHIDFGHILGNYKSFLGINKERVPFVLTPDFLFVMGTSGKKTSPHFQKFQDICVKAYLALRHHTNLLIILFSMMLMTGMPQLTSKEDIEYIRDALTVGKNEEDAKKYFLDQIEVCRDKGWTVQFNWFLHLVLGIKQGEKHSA", "assay": "Selectivity interaction (KinomeScan (DiscoverX)) EUB0000229b PIK3CG", "conditions": "at 10 µM"}, "[11]": {"target": "Serine/threonine-protein kinase PAK 3 (Homo sapiens) (UniProt O75914)", "sequence (O75914 whole entry, looked up)": "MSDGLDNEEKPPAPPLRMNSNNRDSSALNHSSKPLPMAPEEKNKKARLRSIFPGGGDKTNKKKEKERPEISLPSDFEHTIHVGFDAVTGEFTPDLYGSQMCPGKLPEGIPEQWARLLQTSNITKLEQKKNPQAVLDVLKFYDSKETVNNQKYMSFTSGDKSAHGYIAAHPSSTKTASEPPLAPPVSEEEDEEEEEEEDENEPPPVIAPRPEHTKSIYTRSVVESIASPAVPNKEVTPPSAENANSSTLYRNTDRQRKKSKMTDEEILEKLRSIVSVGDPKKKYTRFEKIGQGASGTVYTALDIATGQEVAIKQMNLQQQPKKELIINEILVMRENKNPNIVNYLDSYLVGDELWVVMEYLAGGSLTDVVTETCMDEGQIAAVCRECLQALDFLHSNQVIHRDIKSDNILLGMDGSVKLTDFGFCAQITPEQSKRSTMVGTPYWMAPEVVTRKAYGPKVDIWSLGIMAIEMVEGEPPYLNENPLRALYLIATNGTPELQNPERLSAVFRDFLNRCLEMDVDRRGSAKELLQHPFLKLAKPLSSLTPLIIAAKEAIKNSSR", "assay": "Selectivity interaction (KinomeScan (DiscoverX)) EUB0000695a PAK3", "conditions": "at 100 nM"}, "[12]": {"target": "T3, Tyrosine-protein kinase TXK (Homo sapiens) (UniProt P42681)", "T3 sequence (whole entry)": "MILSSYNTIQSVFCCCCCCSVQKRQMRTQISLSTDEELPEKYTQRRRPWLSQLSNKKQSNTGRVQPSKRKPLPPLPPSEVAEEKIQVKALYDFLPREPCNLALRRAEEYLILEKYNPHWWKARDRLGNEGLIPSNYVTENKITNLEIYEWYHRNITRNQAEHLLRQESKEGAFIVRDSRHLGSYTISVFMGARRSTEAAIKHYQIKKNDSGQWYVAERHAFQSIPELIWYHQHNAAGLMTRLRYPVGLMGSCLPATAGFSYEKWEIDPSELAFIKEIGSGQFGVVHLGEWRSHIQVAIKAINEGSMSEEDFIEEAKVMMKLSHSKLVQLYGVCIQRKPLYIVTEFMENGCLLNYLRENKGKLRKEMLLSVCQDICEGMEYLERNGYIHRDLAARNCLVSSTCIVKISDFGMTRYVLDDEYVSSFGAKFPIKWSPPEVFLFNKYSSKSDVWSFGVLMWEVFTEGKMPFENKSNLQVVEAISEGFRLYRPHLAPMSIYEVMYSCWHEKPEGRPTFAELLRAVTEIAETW", "assay": "Selectivity interaction (KinomeScan (DiscoverX)) EUB0000695a TXK", "conditions": "at 100 nM"}}, "data": [{"molecule": "CCN(CC)CCCCNc1ncc2cc(-c3cc(OC)cc(OC)c3)c(NC(=O)NC(C)(C)C)nc2n1", "values": [{"measurement": "% of control", "setting": "[1]", "result": 100, "unit": "%"}, {"measurement": "% of control", "setting": "[2]", "result": 100, "unit": "%"}]}, {"molecule": "Nc1cnc(N2CCc3cc(S(=O)(=O)Nc4c(F)cc(Cl)cc4F)cc(N4CCCC4=O)c32)nc1", "note": "[TP-020n]", "values": [{"measurement": "% of control", "setting": "[3]", "result": 100, "unit": "%"}]}, {"molecule": "CNC(=O)Nc1ccc(-c2nc(N3CC4CCC(C3)O4)c3cnn(C4CCC5(CC4)OCCO5)c3n2)cc1", "values": [{"measurement": "% of control", "setting": "[4]", "result": 100, "unit": "%"}]}, {"molecule": "N#Cc1cccc(-c2c[nH]c3ncnc(N4CCOCC4)c23)c1", "values": [{"measurement": "% of inhibition", "setting": "[5]", "result": 14, "unit": "%"}]}, {"molecule": "COCC(=O)NC/C=C/c1ccc2ncnc(Nc3ccc(Oc4ccc(C)nc4)c(C)c3)c2c1", "note": "[CP-724714]", "values": [{"measurement": "% of control", "setting": "[6]", "result": 81, "unit": "%"}]}, {"molecule": "Cc1ccc(-c2ccc3c(ccc4sc5c(c43)NC[C@@H](C)NC5=O)n2)cn1", "values": [{"measurement": "% of inhibition", "setting": "[7]", "result": 30, "unit": "%"}]}, {"molecule": "C=CC(=O)Nc1ccc(C(=O)Nc2[nH]nc3c2CN(C(=O)N[C@H](CN(C)C)c2ccccc2)C3(C)C)cc1", "values": [{"measurement": "% of engagement", "setting": "[8]", "result": -1.9, "unit": "%"}]}, {"molecule": "Cc1cc([C@@H](C)Nc2ccccc2C(=O)O)c2nc(N3CCOCC3)cc(=O)n2c1", "note": "[AZD-6482]", "values": [{"measurement": "% of control", "setting": "[9]", "result": 62, "unit": "%"}]}, {"molecule": "COc1cc(N(C)c2ccnc3ccc(C(F)(F)F)cc23)cc(OC)c1OC", "values": [{"measurement": "% binding", "setting": "[10]", "result": 99, "unit": "%"}]}, {"molecule": "Cc1cc(F)c(C(=O)Nc2cccc(-c3nncn3C(C)C)n2)cc1-n1cnc(C2CC2)c1", "values": [{"measurement": "% of control", "setting": "[11]", "result": 89, "unit": "%"}, {"measurement": "% of control", "setting": "[12]", "result": 98, "unit": "%"}]}]}
